# In ChEMBL document CHEMBL4699520, “A guanidinium-based inhibitor of a type I isopentenyl diphosphate isomerase” (Bioorg Med Chem Lett, 2020):
# Calls of active or inactive are those of the source. The rule behind the calls is not given here.
# Experiments:
# [1] = tested on: Claviceps purpurea; experiment: Inhibition of Claviceps purpurea type 1 IDI
# [2] = Competitive inhibition of recombinant N-terminal hexaHis-tagged Staphylococcus aureus MS4 DSQS expressed in Escherichia coli Rosetta(DE3) using varying levels of FPP as substrate by Line weaver Burk plot analysis
# [3] = target: T1, Farnesyl pyrophosphate synthase (Homo sapiens, UniProt P14324); experiment: Inhibition of N-terminal hexaHis-tagged human FPPS (6 to 353 residues) expressed in Escherichia coli using GPP and IPP as substrate by enzyme coupled assay
# T1 sequence (P14324 whole entry): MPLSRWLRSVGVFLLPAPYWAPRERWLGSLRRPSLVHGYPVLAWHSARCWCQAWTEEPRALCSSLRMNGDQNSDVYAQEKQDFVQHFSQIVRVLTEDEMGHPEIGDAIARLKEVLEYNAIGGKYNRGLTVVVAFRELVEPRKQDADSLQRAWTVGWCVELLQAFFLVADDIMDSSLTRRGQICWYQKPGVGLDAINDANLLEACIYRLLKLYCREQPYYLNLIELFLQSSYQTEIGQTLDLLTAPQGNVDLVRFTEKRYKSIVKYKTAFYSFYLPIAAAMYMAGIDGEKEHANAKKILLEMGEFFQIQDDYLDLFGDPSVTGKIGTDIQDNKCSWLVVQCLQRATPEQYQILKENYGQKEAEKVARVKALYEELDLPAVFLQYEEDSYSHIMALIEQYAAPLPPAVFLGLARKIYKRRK
# [4] = Inhibition of full-length N-terminal hexaHis-tagged Escherichia coli type 1 IDI using IPP as substrate by enzyme coupled assay
# [5] = Competitive inhibition of full-length N-terminal hexaHis-tagged Escherichia coli type 1 IDI using varying levels of IPP as substrate by Line weaver Burk plot analysis
# [6] = Inhibition of 4-DMATS (unknown origin)
Compound,Kdiss [1],Ki [2] [µM],IC50 [3] [µM],IC50 [4] [µM],Ki [5] [µM],inhibition [6]
CN(C)CCOP(=O)(O)OP(=O)(O)O,< 1.2 10^-10M,–,–,–,–,–
CC(C)=CCC/C(C)=C/CC/[N+](C)=C/NCP(=O)(O)CP(=O)([O-])O,–,4.2,–,–,–,–
CC(C)CCCC(C)CCCN(C)C(=O)NCP(=O)(O)CP(=O)(O)O (stereo unspecified),–,0.61,–,–,–,–
NC(N)=NCP(=O)(O)CP(=O)(O)O,–,–,233,0.3,0.12,inactive
CC(C)=CCC/C(C)=C/CC/[N+](C)=C(\N)NCP(=O)(O)CP(=O)([O-])O,–,1.9,–,–,–,–
CC(=O)NCP(=O)(O)CP(=O)(O)O,–,–,177,190,51.7,inactive
NCP(=O)(O)CP(=O)(O)O,–,–,150,15,4.2,inactive
